According to the supplement of paper PMC10307832:

How the values were obtained:
Test in all cases: relative viability (nuclei count vs DMSO), 5 days (fraction); higher = more cells survive
Imatinib + Pictilisib = compound: Cc1ccc(NC(=O)c2ccc(CN3CCN(C)CC3)cc2)cc1Nc1nccc(-c2cccnc2)n1 [Imatinib] + CS(=O)(=O)N1CCN(Cc2cc3nc(-c4cccc5[nH]ncc45)nc(N4CCOCC4)c3s2)CC1 [Pictilisib] (partner 1 µM)
In short: (§1)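 Values are medians from duplicate plates. Each reflects relative viability, defined as the nuclei count of treated wells over that of vehicle wells. Lung cancer cell lines in 1536-well plates were pin-tool dosed one day after seeding with one drug alone or with a fixed anchor-drug dose plus five library-drug doses (not always all listed) in √10 steps, then fixed, stained and imaged at 4× after 5 days.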

Imatinib + Lapatinib = compound: Cc1ccc(NC(=O)c2ccc(CN3CCN(C)CC3)cc2)cc1Nc1nccc(-c2cccnc2)n1 [Imatinib] + CS(=O)(=O)CCNCc1ccc(-c2ccc3ncnc(Nc4ccc(OCc5cccc(F)c5)c(Cl)c4)c3c2)o1 [Lapatinib] (partner 2 µM)
In short: as §1

Imatinib + Navitoclax = compound: Cc1ccc(NC(=O)c2ccc(CN3CCN(C)CC3)cc2)cc1Nc1nccc(-c2cccnc2)n1 [Imatinib] + CC1(C)CCC(c2ccc(Cl)cc2)=C(CN2CCN(c3ccc(C(=O)NS(=O)(=O)c4ccc(N[C@H](CCN5CCOCC5)CSc5ccccc5)c(S(=O)(=O)C(F)(F)F)c4)cc3)CC2)C1 [Navitoclax] (partner 0.5 µM)
In short: as §1

Imatinib + Vorinostat = compound: Cc1ccc(NC(=O)c2ccc(CN3CCN(C)CC3)cc2)cc1Nc1nccc(-c2cccnc2)n1 [Imatinib] + O=C(CCCCCCC(=O)Nc1ccccc1)NO [Vorinostat] (partner 1 µM)
In short: as §1

| Cell Line | relative viability (Imatinib + Pictilisib; first compound 0.06325 µM) | relative viability (Imatinib + Pictilisib; first compound 0.2 µM) | relative viability (Imatinib + Pictilisib; first compound 0.6325 µM) | relative viability (Imatinib + Pictilisib; first compound 2 µM) | relative viability (Imatinib + Lapatinib; first compound 0.02 µM) | relative viability (Imatinib + Lapatinib; first compound 0.06325 µM) | relative viability (Imatinib + Lapatinib; first compound 0.2 µM) | relative viability (Imatinib + Lapatinib; first compound 0.6325 µM) | relative viability (Imatinib + Lapatinib; first compound 2 µM) | relative viability (Imatinib + Navitoclax; first compound 0.02 µM) | relative viability (Imatinib + Navitoclax; first compound 0.06325 µM) | relative viability (Imatinib + Navitoclax; first compound 0.2 µM) | relative viability (Imatinib + Navitoclax; first compound 0.6325 µM) | relative viability (Imatinib + Navitoclax; first compound 2 µM) | relative viability (Imatinib + Vorinostat; first compound 0.02 µM) | relative viability (Imatinib + Vorinostat; first compound 0.06325 µM) | relative viability (Imatinib + Vorinostat; first compound 0.2 µM) | relative viability (Imatinib + Vorinostat; first compound 0.6325 µM) | relative viability (Imatinib + Vorinostat; first compound 2 µM) | relative viability (Imatinib + Pictilisib; first compound 0.02 µM) |
| --- | --- | --- | --- | --- | --- | --- | --- | --- | --- | --- | --- | --- | --- | --- | --- | --- | --- | --- | --- | --- |
| NCI-H1703 | 0.268 | 0.219 | 0.256 | 0.235 | 1.01 | 1.1 | 0.439 | 0.276 | 0.281 | 1.39 | 1.12 | 0.586 | 0.383 | 0.238 | – | – | – | – | – | – |
| NCI-H358 | – | 0.326 | 0.275 | 0.347 | 0.478 | – | 0.445 | 0.448 | 0.392 | – | – | – | – | – | 0.863 | 0.83 | 0.642 | 0.692 | 0.729 | 0.292 |
| Calu-6 | 1.11 | 1.16 | 0.887 | 0.89 | 1.24 | 1.23 | 1.27 | 1.16 | 1.13 | 0.976 | 0.804 | 0.777 | 0.85 | 0.814 | – | – | – | – | – | 1.18 |
| NCI-H661 | 0.431 | 0.456 | 0.374 | 0.413 | 0.434 | 0.296 | 0.546 | 0.19 | 0.481 | – | – | – | – | – | 0.823 | 0.87 | 0.845 | 0.778 | 0.74 | 0.333 |
| A-427 | – | 0.692 | 0.739 | 0.663 | – | – | 1.05 | 1.12 | 0.952 | 1.05 | – | 0.998 | 0.945 | 0.949 | – | – | – | – | – | 0.749 |
| NCI-H2023 | 0.191 | 0.224 | 0.213 | 0.217 | – | – | – | – | – | 1.08 | 1.23 | 1.12 | 0.958 | 0.898 | 0.846 | 0.376 | 0.615 | – | 0.614 | 0.247 |
| NCI-H1299 | 1.07 | 0.833 | 0.954 | 0.776 | 0.999 | 1 | 0.988 | 0.956 | 0.988 | 1.02 | 1.11 | 1.08 | 1.01 | 1.04 | – | – | – | – | – | 0.868 |
| EBC-1 | 0.405 | 0.387 | 0.304 | 0.334 | 0.182 | 0.187 | 0.216 | 0.195 | 0.168 | 0.398 | 0.399 | 0.382 | 0.327 | 0.379 | – | – | – | – | – | 0.425 |
| LCLC-103H | – | 0.692 | 0.578 | – | – | – | – | – | – | – | – | – | – | – | 0.768 | 0.584 | 0.814 | 0.766 | 0.779 | 0.67 |
| NCI-H1563 | 0.537 | 0.634 | 0.605 | 0.589 | 1.01 | 0.699 | 0.98 | 0.869 | – | – | – | – | – | – | – | – | – | – | – | 0.662 |
| ChaGo-K-1 | 0.497 | 0.589 | – | – | – | – | – | – | – | 1.04 | 0.927 | – | 1.37 | 1.09 | 0.804 | – | 0.79 | 0.761 | 0.697 | 0.88 |
| ABC-1 | – | 0.669 | 0.914 | 0.679 | 1.25 | 0.727 | 1.31 | 0.312 | 1.11 | – | – | – | – | – | 1.21 | – | 1.37 | 1.02 | 1.24 | 0.685 |
